Common to all, as to assay type: cell-based, human
One experiment concerns MDA-MB-468 cells. The experiment in a line: Cell death by trypan blue exclusion. As to conditions: 10 μM with bortezomib 1, 10, 100 nM, 20 hours. Here is the method:
Trypan blue exclusion and propidium iodide staining were used to quantify general cell death and the presence of apoptotic cell death was confirmed by immunoblot. The percentage of dead cells in a given population was determined by quantifying the number of trypan blue positive (dead) cells and dividing by the total number of trypan blue positive and negative cells.

Experiment [1] deals with MDA-MB-468 (GFP-LC3), MDA-MB-468 and T47D breast adenocarcinoma cells. The experiment in a line: Autophagy markers (GFP-LC3II, GFP-LC3 punctae, endogenous LC3II). As to conditions: 10 μM, ~16 hours. Here is the method: FIG. 56A is an immunoblot illustrating MDA-MB-468 breast adenocarcinoma cells stably transfected with GFP-LC3 (green fluorescent protein tagged light chain 3, an autophagy marker) treated for ˜16 hours with 10 μM IPAG or 10 μM 1-3 JMS-51-58. The appearance of GFP-LC3II was an indication of autophagosome formation. FIG. 56B is an image illustrating formation of autophagosomes (GFP-LC3 punctae) in MDA468 (GFP-LC3) treated with 10 μM JMS-51-58 as in FIG. 56A. The arrow points to an example of GFP-LC3-positive autophagosomes. The white bar at the bottom of the image indicates 100 μm. FIG. 56C is an image of an immunoblot illustrating the appearance of endogenous LC3II, a marker of autophagosome formation, in MDA-MB-468 breast adenocarcinoma cells treated for 16 hours with 10 μM of JMS-51-58. FIG. 56D is an image of an immunoblot illustrating the appearance of endogenous LC3II, a marker of autophagosome formation, in T47D breast adenocarcinoma cells treated for 16 hours with 10 μM JMS-51-58.

The subject of experiment [2] is MDA-MB-468 and T47D breast adenocarcinoma cells. The experiment is described as follows: Translational arrest immunoblot (P-S6K, P-4E-BP1). As to conditions: 10 μM, 16 hours. Here is the method: FIG. 57A is an image of an immunoblot illustrating MDA-MB-468 breast adenocarcinoma cells treated for 16 hours with 10 μM of JMS-51-58. FIG. 57B is an image of an immunoblot illustrating T47D breast adenocarcinoma cells treated for 16 hours with 10 μM of JMS-51-58. The levels of phosphothreonine 389-p70S6Kinase (P-S6K) and phosphoserine 65-4E-BP1 (P-4E-BP1) were evaluated by immunoblot. Decreased levels of both phosphoprotein levels indicated diminished protein synthesis.
In general terms: A western blot detects proteins with antibodies after separation by electrophoresis.

For experiment [3] the test system is unchanged. The experiment in a line: ER stress response immunoblot (P-p38MAPK, GRP78/BiP). As to conditions: 10 μM, 16 hours. Here is the method: FIG. 58A is an image of an immunoblot of MDA-MB-468 breast adenocarcinoma cells treated for 16 hours with 10 μM JMS-51-58. FIG. 58B is an image of an immunoblot of T47D breast adenocarcinoma cells treated for 16 hours with 10 μM JMS-51-58. The levels of phospho-Thr 180/Tyr 182 p38MAPK (P-p38MAPK) and GRP78/BiP and were evaluated by immunoblot.

In experiment [4] the test system is MDA-MB-468 and MDA-MB-231 breast adenocarcinoma cells. The experiment in a line: Poly-ubiquitylated protein immunoblot, breast adenocarcinoma cells. As to conditions: 10 μM, 16 hours, MDA-MB-468 and MDA-MB-231. As to the method: FIG. 34A is an image of an immunoblot of MDA-MB-468 breast adenocarcinoma cells treated with 10 μM Sigma1 antagonist (IPAG) for the indicated times, up to 24 hours. Total cell lysates were resolved by SDS-PAGE and immunoblotted with a poly-ubiquitin antibody P4D1. FIG. 34B is an image of an immunoblot of HepG2 hepatocellular carcinoma cells treated for 20 hours with 10 μM of indicated Sigma1 ligands.
FIG. 59, comprising FIGS. 59A-59B, illustrates the finding that the novel Sigma1 ligand JMS-51-58 modulated the ubiquitin proteasome system. FIG. 59A is an image of an immunoblot evaluating the levels of poly-ubiquitylated proteins of MDA-MB-468 breast adenocarcinoma treated for 16 hours with 10 μM of JMS-51-58. FIG. 59B is an image of an immunoblot evaluating the levels of poly-ubiquitylated proteins of MDA-MB-231 breast adenocarcinoma cells treated for 16 hours with 10 μM of JMS-51-58. The levels of poly-ubiquitylated proteins were evaluated by immunoblot.

Experiment [5] relates to MDA-MB-468, T47D, MDA-MB-231 and PC3 cells. The experiment in a line: Cell proliferation by Alamar blue assay, tumor cell lines. As to conditions: four drug concentrations, 40-70 hours of treatment. As to the method:
In vitro cell proliferation was quantified by Alamar blue assay. The anti-proliferative effects of four drug concentrations of novel Sigma1 small molecule ligand JMS-51-2nd-58 were quantified after 40-70 hours of treatment. Data are representative of an experiment formed in triplicate for each cell line. FIG. 60A is a graph illustrating cell death in MDA-MB-468 breast adenocarcinoma cell cultures. FIG. 60B is a graph illustrating cell death in T47D breast adenocarcinoma cell cultures. FIG. 60C is a graph illustrating cell death in MDA-MB-231 breast adenocarcinoma cell cultures. FIG. 60D is a graph illustrating cell death in PC3 prostate adenocarcinoma cell cultures.
On the technique in general: The colour change of resazurin is a common sign of viable cells or microbes.

In experiment [6] the test system is MDA-MB-231 breast adenocarcinoma cells. The experiment is described as follows: Alamar blue proliferation assay with bortezomib. As to conditions: ~70 hours. Here is the method:
FIG. 61, comprising FIGS. 61A-61B, is a set of graphs illustrating the finding that the novel Sigma1 ligand JMS-51-58 potentiated proteasome inhibitor mediated inhibition of tumor cell proliferation. In vitro cell proliferation was quantified by Alamar blue assay. The anti-proliferative effects of four drug concentrations of novel Sigma1 small molecule ligand JMS-51-58, were quantified after ˜70 hours of treatment of MDA-MB-231 breast adenocarcinoma cell cultures. […] Note the shift to the left of the dose-response curve (broken line). Data are representative of an experiment performed in triplicate.

The next experiment concerns MDA-MB-231 and PC3 cells. The experiment in a line: In vitro cell adhesion by Alamar blue assay. As to conditions: 16 hours in the presence of drug. As to the method:
In vitro cell adhesion was quantified by Alamar blue assay. MDA-MB-231 and PC3 cells were detached with 0.25% trypsin+2 mM EDTA and reseeded onto 96 well plates. At the time of cell seeding, IPAG (Sigma1 putative antagonist) was added at the indicated doses to wells containing adenocarcinoma cells. The suspended cells were allowed to sediment and adhere for 16 hours in the presence of drug. Subsequently, the culture medium was removed by aspiration, each well washed once with 0.2 ml PBS (without calcium and magnesium), and Alamar blue assay was performed to quantify the number of live cells adhered to the surface of each well. FIG. 63A is a graph illustrating cell adherence in MDA-MB-231 breast adenocarcinoma cells. FIG. 63B is a graph illustrating cell adherence in PC3 prostate adenocarcinoma cells. The same procedure was performed using the indicated concentrations of JMS-51-58. FIG. 63C is a graph illustrating cell adherence in MDA-MB-231 breast adenocarcinoma cells. FIG. 63D is a graph illustrating cell adherence in PC3 prostate adenocarcinoma cells. Standard deviation bars are shown.

Take `N=C(NCCCOc1ccc(F)cc1)Nc1ccc(I)cc1` [JMS-51-58, 1-(3-(4-fluorophenoxy)propyl)-3-(4-iodophenyl)guanidine]: in the experiment on MDA-MB-468 cells, the “potentiation of proteasome inhibitor (bortezomib) mediated cell death” value is “potentiated proteasome inhibitor mediated tumor cell death”. In addition, in experiment [1], the induction of autophagy entry is given as “induced autophagy”. Moreover, in experiment [2], the “translational arrest (decreased P-S6K and P-4E-BP1)” value is listed as “mediated translational arrest”. The ER stress response result in experiment [3] is recorded as “mediated ER stress response”. For the same compound, the “levels of poly-ubiquitylated proteins” value in experiment [4] was “increased ubiquitylated protein levels compared to the DMSO control”. Also, the tumor cell proliferation entry in experiment [5] is listed as “inhibited tumor cell proliferation”. Further, in experiment [6] (3 μM), the “cell proliferation and rates of cell death” value was “did not alter cell proliferation or rates of cell death”. Further, the “potentiation of bortezomib (BTZ) inhibition of cell proliferation” value in experiment [6] (sub-lethal dose (3 μM)) is “potentiated the cell proliferation inhibiting effects of bortezomib”. Further, the cell adhesion entry with MDA-MB-231 and PC3 cells was “inhibited adhesion of metastatic breast and prostate adenocarcinoma cell lines”.
